The record followed here is patent publication US6677331B2, “Carbapenem derivatives” (Meiji Seika Kaisha, Ltd., priority 1998, dated 2004).

Bounds are passed on as bounds.

The nature of data set [1]: solubility (remark in the acute toxicity test). In kind it is physicochemical. To be noted: reason for the lower i.v. dose.
Another data set concerns E. faecalis W-73. The data set is described as follows: Test 1: Anti-Microbial Activities (MIC). In kind it is cell-based. To be noted: Enterococcus faecalis, W73, Sensitivity Disk agar-N+5% Horse blood, inoculants 10^6 CFU/ml, read-out: minimum inhibiting concentrations (MIC). The procedure: (§1) The minimum inhibiting concentrations (MIC, μg/ml) of the compounds according to the present invention to various pathogenic bacteria was measured in accordance with the method described in CHEMOTHERAPY, vol. 16, No. 1,99, 1968. The culture medium for measurement was Sensitivity Disk agar-N+5% Horse blood, and the amount of inoculants was 10^6 CFU/ml.

In the next data set the test system is M. catarrhalis W-0500. As to the kind of experiment: Test 1: Anti-Microbial Activities (MIC). In kind it is cell-based. To be noted: Moraxella catarrhalis, W0500, Sensitivity Disk agar-N+5% Horse blood, inoculants 10^6 CFU/ml, read-out: minimum inhibiting concentrations (MIC). The procedure:
as §1

The subject of another data set is S. aureus M126. The data set is described as follows: Test 1: Anti-Microbial Activities (MIC). To be noted: Staphylococcus aureus; S. aureus M126, methicillin-hyperresistant strain (MRSA); Sensitivity Disk agar-N+5% Horse blood; inoculants 10^6 CFU/ml; read-out: minimum inhibiting concentrations (MIC). In kind it is cell-based. The procedure:
as §1

Another data set concerns S. pneumoniae PRC9. The data set is described as follows: Test 1: Anti-Microbial Activities (MIC). The following applies: Streptococcus pneumoniae; S. pneumoniae PRC9, penicillin-hyperresistant strain (PRSP); Sensitivity Disk agar-N+5% Horse blood; inoculants 10^6 CFU/ml; read-out: minimum inhibiting concentrations (MIC). In kind it is cell-based. The procedure:
as §1

For another data set, the system named is E. hirae ATCC8043. The data set is described as follows: Test 1: Anti-Microbial Activities (MIC). In kind it is cell-based. To be noted: Enterococcus hirae, Sensitivity Disk agar-N+5% Horse blood, inoculants 10^6 CFU/ml, read-out: minimum inhibiting concentrations (MIC). The procedure: as §1
The subject of a further data set is H. influenzae PRC2. The data set is described as follows: Test 1: Anti-Microbial Activities (MIC). In kind it is cell-based. To be noted: Haemophilus influenzae, Sensitivity Disk agar-N+5% Horse blood, inoculants 10^6 CFU/ml, read-out: minimum inhibiting concentrations (MIC). As for the experimental part:
as §1

Another data set deals with H. influenzae PRC44. The data set is described as follows: Test 1: Anti-Microbial Activities (MIC). In kind it is cell-based. To be noted: Haemophilus influenzae, Sensitivity Disk agar-N+5% Horse blood, inoculants 10^6 CFU/ml, read-out: minimum inhibiting concentrations (MIC). The procedure: as §1
The next data set relates to P. vulgaris GN7919. As to the kind of experiment: Test 1: Anti-Microbial Activities (MIC). In kind it is cell-based. To be noted: Proteus vulgaris, Sensitivity Disk agar-N+5% Horse blood, inoculants 10^6 CFU/ml, read-out: minimum inhibiting concentrations (MIC). The procedure:
as §1

The next data set deals with S. epidermidis ATCC14990. The data set is described as follows: Test 1: Anti-Microbial Activities (MIC). To be noted: Staphylococcus epidermidis, Sensitivity Disk agar-N+5% Horse blood, inoculants 10^6 CFU/ml, read-out: minimum inhibiting concentrations (MIC). In kind it is cell-based. The procedure: as §1
The test system of another data set is E. coli NIHJ JC-2. As to the kind of experiment: Test 1: Anti-Microbial Activities (MIC). In kind it is cell-based. To be noted: Escherichia coli, NIHJJC2, Sensitivity Disk agar-N+5% Horse blood, inoculants 10^6 CFU/ml, read-out: minimum inhibiting concentrations (MIC). As for the experimental part: as §1
A further data set has as its system C. freundii GN346. The data set is described as follows: Test 1: Anti-Microbial Activities (MIC). In kind it is cell-based. The following applies: Citrobacter freundii, Sensitivity Disk agar-N+5% Horse blood, inoculants 10^6 CFU/ml, read-out: minimum inhibiting concentrations (MIC). As for the experimental part:
as §1

Another data set deals with K. pneumoniae PCI602. As to the kind of experiment: Test 1: Anti-Microbial Activities (MIC). In kind it is cell-based. To be noted: Klebsiella pneumoniae, Sensitivity Disk agar-N+5% Horse blood, inoculants 10^6 CFU/ml, read-out: minimum inhibiting concentrations (MIC). The procedure: as §1
The test system of another data set is S. aureus 209P JC-1. The data set is described as follows: Test 1: Anti-Microbial Activities (MIC). In kind it is cell-based. The following applies: Staphylococcus aureus, Sensitivity Disk agar-N+5% Horse blood, inoculants 10^6 CFU/ml, read-out: minimum inhibiting concentrations (MIC). The procedure:
as §1

The nature of data set [2]: Test 5: Acute Toxicity (i.v.). In kind it is in vivo, mice (ICR, male). To be noted: mice, 1,500 mg/kg i.v. The procedure: The compounds of Examples 44, 62, 88, and 111 were tested again in the same manner as the above provided that cilastatin sodium was co-administered.

`CSc1ncn2cc(C3=C(C(=O)[O-])N4C(=O)[C@H]([C@@H](C)O)[C@H]4[C@H]3C)sc12.[Na+]` [Example 111, Sodium (1S,5R,6S)-6-((1R)-1-Hydroxyethyl)-1-methyl-2-(7-methylthioimidazo[5,1-b]thiazol-2-yl)-1-carbapen-2-em-3-carboxylate]: in data set [1], the solubility result is recorded as “limited solubility”. The MIC with E. faecalis W-73 is 0.2 µg/mL; with M. catarrhalis W-0500, less than 0.025 µg/mL; in the data set with S. aureus M126 it was 1.56 µg/mL; in the data set with S. pneumoniae PRC9, 0.05 µg/mL; in the data set on E. hirae ATCC8043, 0.39 µg/mL; in the data set with H. influenzae PRC2 it was less than 0.025 µg/mL. For the same compound, the MIC with H. influenzae PRC44 is 0.05 µg/mL; in the data set on P. vulgaris GN7919, 0.39 µg/mL; in the data set on S. epidermidis ATCC14990, less than 0.025 µg/mL; with E. coli NIHJ JC-2 it was 0.78 µg/mL; in the data set on C. freundii GN346, 1.56 µg/mL; with K. pneumoniae PCI602, 0.78 µg/mL. The MIC with S. aureus 209P JC-1 is less than 0.025 µg/mL. Besides, the “survival (acute toxicity)” value in [2] and in data set [2] (cilastatin sodium co-administered) was “All of the animal survived” in each case.
